In PubChem BioAssay AID248 (DTP/NCI, 2004):
Values joined by “and” are separate entries in the source; they are usually repeats but may differ in a detail not shown here. Identical values can stand only once. Toxic doses and inconclusive results are not listed. Square brackets hold non-standard residues; d marks the D form. Peptide text beside a SMILES is read from it. * marks the point of attachment. ξ: configuration not given here. ξF = NC(Cc1ccccc1)C(=O)O; Cbz = O=C(OCc1ccccc1)*

System: L1210 leukemia ip in BDF1 mice, survival T/C
Test: NCI In Vivo Anticancer Drug Screen. Data for tumor model L1210 Leukemia (intraperitoneal) in B6D2F1 (BDF1) mice
Conditions: endpoint: mean survival time, higher = longer survival
In short: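 Tumor cells were implanted, animals were treated, and survival was followed. The result divides the treated measurement by the vehicle-control measurement.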

## S=P(N1CCCCCC1)(N1CC1)N1CC1
dose: 25.0 mg/kg/injection, schedule: Q01DX Z (ip), vehicle: saline
  T/C: 110 % of control and 116 % of control
dose: 50.0 mg/kg/injection, schedule: Q01DX001 (ip), vehicle: saline
  T/C: 108 % of control
dose: 50.0 mg/kg/injection, schedule: Q01DX006 (iv), vehicle: saline
  T/C: 104 % of control
dose: 50.0 mg/kg/injection, schedule: Q01DX Z (ip), vehicle: saline
  T/C: 96 % of control
dose: 50.0 mg/kg/injection, schedule: Q01DX Z (oral), vehicle: saline
  T/C: 122 % of control
dose: 100.0 mg/kg/injection, schedule: Q01DX001 (ip), vehicle: saline
  T/C: 113 % of control
dose: 100.0 mg/kg/injection, schedule: Q01DX006 (iv), vehicle: saline
  T/C: 105 % of control
dose: 100.0 mg/kg/injection, schedule: Q01DX Z (ip), vehicle: saline
  T/C: 170 % of control
dose: 100.0 mg/kg/injection, schedule: Q01DX Z (oral), vehicle: saline
  T/C: 158 % of control
dose: 200.0 mg/kg/injection, schedule: Q01DX001 (ip), vehicle: saline
  T/C: 105 % of control
dose: 200.0 mg/kg/injection, schedule: Q01DX006 (iv), vehicle: saline
  T/C: 104 % of control
dose: 250.0 mg/kg/injection, schedule: Q01DX001 (ip), vehicle: saline
  T/C: 112 % of control
dose: 500.0 mg/kg/injection, schedule: Q01DX001 (ip), vehicle: saline
  T/C: 104 % of control

## CCCCCCCCCCCCCCCC[n+]1ccc(/C=C/c2ccccc2)cc1
dose: 2.5 mg/kg/injection, schedule: Q01DX001 (ip), vehicle: carboxymethylcellulose (CMC)
  T/C: 116 % of control
dose: 5.0 mg/kg/injection, schedule: Q01DX001 (ip), vehicle: carboxymethylcellulose (CMC)
  T/C: 121 % of control
dose: 10.0 mg/kg/injection, schedule: Q01DX001 (ip), vehicle: carboxymethylcellulose (CMC)
  T/C: 116 % of control

## COC(=O)C(Cc1ccccc1)NC(=O)CNC(=O)OCc1ccccc1 (stereo not drawn) (Cbz-Gly-[ξF]-OMe)
dose: 100.0 mg/kg/injection, schedule: Q04DX003 (ip), vehicle: other
  T/C: 106 % of control
dose: 200.0 mg/kg/injection, schedule: Q04DX003 (ip), vehicle: other
  T/C: 101 % of control
dose: 400.0 mg/kg/injection, schedule: Q04DX003 (ip), vehicle: other
  T/C: 106 % of control

## Clc1ccc(C2(CBr)OCCO2)cc1
dose: 100.0 mg/kg/injection, schedule: Q01DX009 (ip), vehicle: Klucel (hydroxypropylcellulose) (HPC)
  T/C: 98 % of control and 105 % of control
dose: 100.0 mg/kg/injection, schedule: Q04DX002 (ip), vehicle: Klucel (hydroxypropylcellulose) (HPC)
  T/C: 95 % of control and 100 % of control
dose: 200.0 mg/kg/injection, schedule: Q01DX009 (ip), vehicle: Klucel (hydroxypropylcellulose) (HPC)
  T/C: 101 % of control and 91 % of control
dose: 200.0 mg/kg/injection, schedule: Q04DX002 (ip), vehicle: Klucel (hydroxypropylcellulose) (HPC)
  T/C: 97 % of control and 98 % of control
dose: 400.0 mg/kg/injection, schedule: Q01DX009 (ip), vehicle: Klucel (hydroxypropylcellulose) (HPC)
  T/C: 97 % of control and 98 % of control
dose: 400.0 mg/kg/injection, schedule: Q04DX002 (ip), vehicle: Klucel (hydroxypropylcellulose) (HPC)
  T/C: 98 % of control and 108 % of control
